The text below walks through data of US6953813B1, “2-Aminotetralin derivatives for the therapy of glaucoma” (Chiesi Farmaceutici S.p.A., priority 1999, dated 2005).

The structures appear in SMILES notation.

The conditions of data set [1]: in vivo; cited from earlier work.
Data set [2] has as its system rabbit. Particulars: cited from earlier work; for effect on intraocular pressure: ophthalmic drops.
Data set [3] relates to normotensive Dutch Belted rabbits. Nature of the data set: Intraocular pressure (IOP) after single dose in normotensive rabbits. The class given is in vivo, rabbit. Particulars: 0.2% w/v. The protocol:
Water (pH 4.5, made isotonic with sodium chloride), was selected as vehicle for the IOP-studies.
Five concentrations (0.01, 0.05, 0.2, 0.5 and 1.0% w/v) of CHF 1035 were studied. Brimonidine (0.2% w/v) was used as a positive, and vehicle (water pH 4.5) as a negative control.
The experimental animals used were normotensive Dutch Belted rabbits of either gender (n=6). A single drop (25 μl) of the test solution was instilled unilaterally into the left eye (treated eye). IOP of the rabbits (treated and untreated eyes) was measured at 1 and 0 h before, and at 0.5, 1, 2, 3, 4, 5, 6 and 7 h after topical eyedrop administration. IOP at the time of eyedrop administration (0 h) was used as a baseline value. IOP was measured using a BioRad Pneumatonometer. More detailed description of the IOP measurement procedure can be found in Pharm. Res. 14, 1738-1743, 1997 and Curr. Eye Res. 14, 791-797, 1995. All the studies were set up using a randomized crossover design. At least 72 h of wash-out time was allowed for each rabbit between dosings. The irritation caused by an instilled eyedrop were evaluated by recording the extent of eyelid closure after topical eyedrop administration.

On to `CCCN(CCc1cccs1)C1CCc2c(O)cccc2C1` (stereo not drawn) [2-(N-propyl-N-2-thienylethylamino)-5-hydroxytetralin], for which the ocular side effects entry in data set [1] was “can also induce eye irritation”.
Take `NC1CCc2cc(O)c(O)cc2C1` (stereo not drawn) [6,7-dihydroxy-2-aminotetralin]: the “effect on intraocular pressure” value in data set [2] is “gives rise to eye hypotension in the rabbit”.
On to `Brc1c(NC2=NCCN2)ccc2nccnc12` [Brimonidine, reference compound], for which the “IOP changes (mean ± SEM) in the treated eye” value in data set [3] (0 min) was 0.0 ± 0.0 mmHg; in data set [3] (30 min), −2.7 ± 0.9 mmHg; in data set [3] (60 min) it was −7.8 ± 0.9 mmHg; in data set [3] (120 min), −6.2 ± 1.4 mmHg; in data set [3] (180 min), −3.9 ± 0.8 mmHg; in data set [3] (240 min), −3.4 ± 0.7 mmHg. Besides, the results for the “IOP changes (mean ± SEM) in the treated eye” value in data set [3] (300 min), in data set [3] (360 min) and in data set [3] (420 min) were −2.4 ± 0.7 mmHg, −0.4 ± 0.6 mmHg and 0.2 ± 0.3 mmHg, respectively. For the same compound, the “IOP changes (mean ± SEM) in the untreated eye” value in data set [3] (0 min) was 0.0 ± 0.0 mmHg; in data set [3] (30 min) it was −3.2 ± 1.2 mmHg; in data set [3] (60 min), −8.7 ± 0.8 mmHg; in data set [3] (120 min), −3.3 ± 1.3 mmHg; in data set [3] (180 min) it was −1.7 ± 0.9 mmHg; in data set [3] (240 min), −2.1 ± 1.0 mmHg. Further, the “IOP changes (mean ± SEM) in the untreated eye” value in data set [3] (300 min) was −0.6 ± 0.9 mmHg; in data set [3] (360 min) it was 0.1 ± 0.6 mmHg; in data set [3] (420 min) it was 0.0 ± 0.6 mmHg.
As for `CNCC(O)c1ccc(OC(=O)C(C)(C)C)c(OC(=O)C(C)(C)C)c1` (stereo not drawn) [Dipivefrin], in data set [1], the ocular side effects result was “pain in the eye and in the superciliary arch as well as corneal vascularization and opacification during long-term use”.
On to `CN(C)C1CCc2c(ccc(O)c2O)C1` (stereo not drawn) [M-7, N,N-dimethyl-5,6-dihydroxy-2-aminotetralin], for which the “concentration inducing eye irritation” value in data set [2] (in vivo) was 0.1%. The “effect on intraocular pressure” value in data set [2] is on record as “active as well in reducing intraocular pressure”.
For `CN(C)C1CCc2cc(O)c(O)cc2C1` (stereo not drawn) [N,N-dimethyl-6,7-dihydroxy-2-aminotetralin], the “effect on intraocular pressure” value in data set [2] is given as “gives rise to eye hypotension in the rabbit”.
